Earlier results, collected in US9604977B2, “Bicyclic thiophenylamide compounds” (Hoffmann-La Roche Inc., priority 2012, dated 2017).

Legend:
[1] = tested on: ob/ob mice
[2] = tested on: ApoE KO mice
[3] = tested on: mice under HF diet

| Structure (SMILES) | glucose uptake in muscle and adipose ([1]; clamp study in ob/ob mice) | hepatic glucose production ([1]; clamp study in ob/ob mice) | body weight and energy consumption ([1]; ob/ob mice) | hepatic steatosis ([1]; ob/ob mice) | atherosclerotic plaques formation [2] | insulin and glucose tolerance [3] | plasma triglyceride and free fatty acid [3] |
| --- | --- | --- | --- | --- | --- | --- | --- |
| CCc1c(-c2ccccc2)c(-c2ccccc2)nn1-c1ccccc1-c1cccc(OCC(=O)O)c1 [BMS309403] | increased glucose uptake in muscle and adipose | reduction of hepatic glucose production | no change in body weight and energy consumption | reduction in hepatic steatosis | decrease in atherosclerotic plaques formation | – | – |
| Cc1noc(-c2c(NC(=O)C3=C(C(=O)O)CCCC3)sc3c2CCCC3)n1 [Compound 3] | – | – | – | – | – | no improvement in insulin and glucose tolerance | reduction in plasma triglyceride and free fatty acid |
